Assay results taken from patent US4002530A, “6-Aminopenicillanic acid derivative” (Recherche et Industrie Therapeutiques (R.I.T.), priority 1975, dated 1977).
≈ marks a conversion by molar mass, not a printed value. Where two headings read alike, the source gives them in different places.

Columns and labels:
mice = conditions: mouse, in vivo, iv, 500 mg/kg
solubility = assay type: physicochemical
[1] = test system: Gram-positive and Gram-negative bacteria; experiment: inhibitory activity against growth of bacteria; assay type: cell-based; conditions: for antibacterial activity relative to another RIT 2214 form: compared with the RIT 2214 form named in the sentence
Method: (§1) Antibiotic RIT D-2214 has been tested in form of the mono ammonium salt in position 3 of the penam nucleus and, for that reason, is herein below charcterized as this monoammonium salt.
(§2) The inhibitory levels were determined by the broth dilution test. A series of tubes containing varied concentrations of the monoammonium salt of antibiotic RIT D-2214 were inoculated with the test organism to determine the minimum concentration of the ammonium salt of antibiotic RIT D-2214 in mcg/ml. in the broth substrate which inhibited organism growth for a period of about twenty hours at 35° C.

physchem = assay type: physicochemical; conditions: reconstituted gastric juice, pH 1.3
Description: Antibiotic RIT D-2214 can be colorimetrically assayed by the classical hydroxylamine method of penicillin assay. […] Recoveries were estimated according to the hydroxylamine assay method.

Salmonella meleagridis = experiment: broth dilution test, minimum inhibitory concentration; assay type: cell-based; conditions: about 20 hours at 35° C, tested as monoammonium salt
[2] = test system: Klebsiella pneumoniae SK&F 4200; experiment: mice protection test; assay type: in vivo; conditions: 72 h, one hour after intravenous infection, observed 3 days, read-out: ED50 (total dose required to protect 50% of the infected mice)
Method: (§3) Comparative trials with ampicillin were performed in vivo according to the usual mice protection test procedure. The test compound was administered in graded dilutions to mice either subcutaneously (s.c.) in water or orally (or.) in combination with calcium carbonate one hour after intravenous infection with uniformly lethal doses of the test organism.

Escherichia coli 9 = experiment: mice protection test; assay type: in vivo; conditions: Escherichia coli, 9, sc, 72 h; s.c., one hour after intravenous infection, observed 3 days; read-out: ED50 (total dose required to protect 50% of the infected mice)
Method: as §3

[3] = test system: Salmonella enteritidis 24; experiment: mice protection test; assay type: in vivo; conditions: Salmonella enterica, sc, 72 h, s.c., one hour after intravenous infection, observed 3 days, read-out: ED50 (total dose required to protect 50% of the infected mice)
Method: as §3

Shigella flexneri 25 = experiment: mice protection test; assay type: in vivo; conditions: Shigella flexneri, 25, sc, 72 h; s.c., one hour after intravenous infection, observed 3 days; read-out: ED50 (total dose required to protect 50% of the infected mice)
Method: as §3

Escherichia coli 47 = experiment: mice protection test; assay type: in vivo; conditions: Escherichia coli, 47, sc, 72 h; s.c., one hour after intravenous infection, observed 3 days; read-out: ED50 (total dose required to protect 50% of the infected mice)
Method: as §3

Salmonella panama 20 = experiment: mice protection test; assay type: in vivo; conditions: Salmonella enterica, 20, sc, 72 h; s.c., one hour after intravenous infection, observed 3 days; read-out: ED50 (total dose required to protect 50% of the infected mice)
Method: as §3

[4] = test system: Salmonella brandebourg 22; experiment: mice protection test; assay type: in vivo; conditions: Salmonella, 22, sc, 72 h; s.c., one hour after intravenous infection, observed 3 days; read-out: ED50 (total dose required to protect 50% of the infected mice)
Method: as §3

Proteus mirabilis 11 = experiment: mice protection test; assay type: in vivo; conditions: Proteus mirabilis, 11, sc, 72 h; s.c., one hour after intravenous infection, observed 3 days; read-out: ED50 (total dose required to protect 50% of the infected mice)
Method: as §3

[5] = test system: Vibrio parahaemoliticus 194; experiment: mice protection test; assay type: in vivo; conditions: Vibrio, 194, 72 h; oral with calcium carbonate, one hour after intravenous infection, observed 3 days; read-out: ED50 (total dose required to protect 50% of the infected mice)
Method: as §3

[6] = test system: Staphylococcus aureus 663; experiment: mice protection test; assay type: in vivo; conditions: Staphylococcus aureus, 663, sc, 72 h; s.c., one hour after intravenous infection, observed 3 days; read-out: ED50 (total dose required to protect 50% of the infected mice)
Method: as §3

Proteus morganii = experiment: broth dilution test, minimum inhibitory concentration; assay type: cell-based; conditions: Morganella morganii, about 20 hours at 35° C, tested as monoammonium salt
Bacillus subtilis = experiment: as above; assay type: cell-based; conditions: about 20 hours at 35° C, tested as monoammonium salt
Shigella sonnei = experiment: as above; assay type: cell-based; conditions: about 20 hours at 35° C, tested as monoammonium salt
Method: as §1, §2

Salmonella typhi = experiment: as above; assay type: cell-based; conditions: Salmonella enterica, 20 h, read-out: Minimum Inhibitory concentration
Salmonella panama = experiment: as above; assay type: cell-based; conditions: Salmonella enterica, about 20 hours at 35° C, tested as monoammonium salt
Klebsiella pneumoniae = experiment: as above; assay type: cell-based; conditions: about 20 hours at 35° C, tested as monoammonium salt
in vivo [7] = experiment: in vivo; design: species or system mice; conditions: mouse, sc, 20 mg/kg
Description: (§4) Plasma samples were adequately diluted with sterile water and assayed according to the usual agar diffusion method, using Bacillus subtilis ATCC 6633 as the test organism.

in vivo [8] = experiment: in vivo; design: species or system dogs; conditions: dog, sc, 20 mg/kg
Description: as §4

Corynebacterium xerosis = experiment: broth dilution test, minimum inhibitory concentration; assay type: cell-based; conditions: about 20 hours at 35° C, tested as monoammonium salt
Salmonella typhimurium = experiment: as above; assay type: cell-based; conditions: Salmonella enterica, about 20 hours at 35° C, tested as monoammonium salt
E. coli Pen. resistant = experiment: as above; assay type: cell-based; conditions: Escherichia coli, penicillin resistant, about 20 hours at 35° C, tested as monoammonium salt
Brucella abortus = experiment: microbe, parasite or virus in culture; assay type: cell-based; conditions: 20 h, read-out: Minimum Inhibitory concentration
Alcaligenes faecalis = experiment: broth dilution test, minimum inhibitory concentration; assay type: cell-based; conditions: about 20 hours at 35° C, tested as monoammonium salt
in vivo [9] = experiment: in vivo; design: species or system rats; conditions: rat, sc, 20 mg/kg
Description: as §4

Salmonella anatum = experiment: broth dilution test, minimum inhibitory concentration; assay type: cell-based; conditions: Salmonella enterica, about 20 hours at 35° C, tested as monoammonium salt
[10] = test system: Staphylococcus aureus Pen.resist.; experiment: as above; assay type: cell-based; conditions: penicillin resistant, about 20 hours at 35° C, tested as monoammonium salt
[11] = test system: Bordetella bronchiseptica; experiment: as above; assay type: cell-based; conditions: about 20 hours at 35° C, tested as monoammonium salt
Pseudomonas aeruginosa = experiment: as above; assay type: cell-based; conditions: about 20 hours at 35° C, tested as monoammonium salt

Question: What does the source list for CC1(C)S[C@@H]2[C@H](NC(=O)CSC[C@@H](N)C(=O)O)C(=O)N2[C@H]1C(=O)O?
Answer: detectable toxicity (mice): does not show any detectable toxicity; solubility in methanol (solubility; methanol): slightly soluble in methanol; solubility in other organic solvents (solubility; organic solvents other than methanol): insoluble in other organic solvents; solubility in water (solubility; water): very soluble in water

Question: With CC1(C)S[C@@H]2[C@H](NC(=O)CSC[C@H](N)C(=O)O)C(=O)N2[C@H]1C(=O)O as the molecule, how does the “inhibitory activity against the growth of bacteria” value ([1]; Gram-positive and Gram-negative bacteria) read?
Answer: Its value is “active against Grampositive and negative bacteria”.

Question: What about the “antibacterial activity relative to another RIT 2214 form” value [1] of the same molecule?
Answer: Its value is “less than the monoammonium salt of RIT D-2214”.

Question: With CC1(C)S[C@@H]2[C@H](NC(=O)CSCC(N)C(=O)O)C(=O)N2[C@H]1C(=O)O (mixture of isomers) [RIT DL-2214] as the molecule, how does the “antibacterial activity relative to another RIT 2214 form” value [1] read?
Answer: Its value is “approximately half”.

Question: Which half-life (physchem) does the source give for CC1(C)S[C@@H]2[C@H](NC(=O)[C@H](N)c3ccccc3)C(=O)N2[C@H]1C(=O)O [Ampicillin, ampicillin, reference compound] here?
Answer: Its half-life is 6.5 h.

Question: What about the MIC (Salmonella meleagridis) of the same molecule?
Answer: Its MIC is 0.6 µg/mL.

Question: And the ED50 ([2]; oral with calcium carbonate)?
Answer: Its ED50 is 50.4 mg/kg.

Question: What about the ED50 ([2]; sc, s.c.) of the same molecule?
Answer: Its ED50 is 36.7 mg/kg.

Question: What about the ED50 (Escherichia coli 9) of the same molecule?
Answer: The ED50 was 11.5 mg/kg.

Question: And the ED50 [3]?
Answer: Its ED50 is 55.6 mg/kg.

Question: What about the ED50 (Shigella flexneri 25) of the same molecule?
Answer: The ED50 was greater than 100 mg/kg.

Question: And the ED50 (Escherichia coli 47)?
Answer: Its ED50 is 23.6 mg/kg.

Question: And the ED50 (Salmonella panama 20)?
Answer: The ED50 was 22 mg/kg.

Question: What about the ED50 [4] of the same molecule?
Answer: Its ED50 is 36.4 mg/kg.

Question: And the ED50 (Proteus mirabilis 11)?
Answer: Its ED50 is 14.8 mg/kg.

Question: And the ED50 [5]?
Answer: Its ED50 is 17.9 mg/kg.

Question: And the ED50 [6]?
Answer: The ED50 was less than 11 mg/kg.

Question: What about the MIC (Proteus morganii) of the same molecule?
Answer: Its MIC is 20 µg/mL.

Question: What about the MIC (Bacillus subtilis) of the same molecule?
Answer: The MIC was 0.3 µg/mL.

Question: And the MIC (Shigella sonnei)?
Answer: The MIC was 2.5 µg/mL.

Question: And the MIC (Salmonella typhi)?
Answer: Its MIC is 0.6 µg/mL (≈ 1.72 µM).

Question: And the MIC (Salmonella panama)?
Answer: Its MIC is 2.5 µg/mL.

Question: And the MIC (Klebsiella pneumoniae)?
Answer: Its MIC is 40 µg/mL.

Question: What about the concentration at 5 min (in vivo [7]) of the same molecule?
Answer: The concentration at 5 min was 6500 ng/mL.

Question: What about the concentration at 0.25 h (in vivo [7]) of the same molecule?
Answer: The concentration at 0.25 h was 9000 ng/mL.

Question: And the concentration at 0.5 h (in vivo [7])?
Answer: The concentration at 0.5 h was 3500 ng/mL.

Question: What about the concentration at 1 h (in vivo [7]) of the same molecule?
Answer: The concentration at 1 h was 1000 ng/mL.

Question: What about the concentration at 0.25 h (in vivo [8]) of the same molecule?
Answer: Its concentration at 0.25 h is 13000 ng/mL.

Question: And the concentration at 0.5 h (in vivo [8])?
Answer: Its concentration at 0.5 h is 18000 ng/mL.

Question: And the concentration at 1 h (in vivo [8])?
Answer: The concentration at 1 h was 18000 ng/mL.

Question: What about the concentration at 2 h (in vivo [8]) of the same molecule?
Answer: Its concentration at 2 h is 9000 ng/mL.

Question: And the MIC (Corynebacterium xerosis)?
Answer: The MIC was 0.1 µg/mL.

Question: And the MIC (Salmonella typhimurium)?
Answer: The MIC was 40 µg/mL.

Question: And the MIC (E. coli Pen. resistant)?
Answer: Its MIC is 80 µg/mL.

Question: And the MIC (Brucella abortus)?
Answer: The MIC was 0.6 µg/mL (≈ 1.72 µM).

Question: And the MIC (Alcaligenes faecalis)?
Answer: Its MIC is 1.6 µg/mL.

Question: And the concentration at 5 min (in vivo [9])?
Answer: Its concentration at 5 min is 7000 ng/mL.

Question: And the concentration at 0.25 h (in vivo [9])?
Answer: The concentration at 0.25 h was 13000 ng/mL.

Question: What about the concentration at 1 h (in vivo [9]) of the same molecule?
Answer: Its concentration at 1 h is 5000 ng/mL.

Question: And the concentration at 2 h (in vivo [9])?
Answer: Its concentration at 2 h is 2500 ng/mL.

Question: What about the MIC (Salmonella anatum) of the same molecule?
Answer: The MIC was 0.6 µg/mL.

Question: What about the MIC [10] of the same molecule?
Answer: Its MIC is 20 µg/mL.

Question: And the MIC [11]?
Answer: The MIC was 0.6 µg/mL.

Question: What about the MIC (Pseudomonas aeruginosa) of the same molecule?
Answer: Its MIC is 80 µg/mL.
